Experimental findings from patent publication US10000641B2, “Method and composition for preventing corrosion of metal surfaces” (Ecolab USA Inc., priority 2010, dated 2018) are described below.

The nature of data set [1]: Linear Polarisation Resistance (LPR) Bubble test, corrosion rate. As to the method: The corrosion inhibition (CI) performance of compounds and compositions of the invention and the performance of comparative examples was tested by means of Linear Polarisation Resistance (LPR) Bubble test measurements.
In general, the LPR Bubble test method uses a test cell, typically made from glass, which is fitted with a probe containing electrodes which are connected to an electrochemical measurement system and associated software. The cell is also fitted with a gas inlet and frit to allow constant purging with CO2 gas. The cell can be loaded with test fluids, typically brine or a combination of brine and a suitable oil phase. The liquids may be stirred, typically at low or moderate speeds, or may be static. The instantaneous rate of corrosion can be measured throughout the experiment by means of the electrochemical probe which extends into the water phase. Other experiments, such as a cyclic sweep, or cyclic polarisation measurement, can also be performed.
In our experiments, the LPR cells were loaded with 95 parts of water (brine) and 5 parts kerosene. The test temperature was 50° C. in all experiments, while details of the water phase pH values relevant to each water composition are given in this Table. The cells were continuously purged with CO2 gas and a stirring speed of 100 rpm was used.
To perform the test, the electrode was allowed to pre-corrode for 2 hours, after which a test corrosion inhibitor composition was added to the kerosene phase. The test was then continued for a total of approximately 14 hours.

Data set [2] in a line: standard testing procedures for biodegradability.
Data set [3] deals with Skeletonema costatum. In words: ISO 10253 1998 water quality marine algal growth inhibition test. Format: cell-based. Here is the method:
Toxicity (EC50) was measured by a standard test: ISO 10253 1998 water quality—marine algal growth inhibition test with Skeletonema costatum.

Setting [4] is: Table 5, Brine A, 10 ppm, blends also contain ethoxylated fatty acid ester and Na thiosulfate.
Setting [5] is: Brine B, 50° C., 10 ppm test chemical with sodium thiosulfate.

A value given as a limit tells only on which side of the number the result lay.

By % Inhibition is commonly meant the change of the read-out against control, counted positive when it falls. Take `CCCCCCCCCC[N+](C)(C)CCCCCCCCCC` [Mixture E]: in data set [1] (setting [4]), the “% Inhibition” value stood at 99.8% and the Final corrosion rate is 0.009 mmpy.
As for `O=C([O-])c1ccccc1.[Na+]` [sodium benzoate], the biodegraded result in data set [2] (after 7 days) was “about 85.5%”; in data set [2] (after 14 days) it was “about 95%”; in data set [2] (after 28 days), 100%.
As to Na Oleyl amphoacetate, the “Algae toxicity (EC50)” value in data set [3] stood at 2.0 mg/L. The “% Inhibition” value in data set [1] (Brine A, 50° C., 10 ppm test chemical with sodium thiosulfate) is listed as 96.81%; in data set [1] (setting [5]), above 99.99%. For the same compound, the Final corrosion rate stood at 0.12 mmpy in data set [1] (Brine A, 50° C., 10 ppm test chemical with sodium thiosulfate, 95:5 brine:kerosene, CO2 purge) and 0.00014 mmpy in data set [1] (setting [5]).
